# Where two headings read alike, the source gives them in different places.
# Key:
# LNCaP cells = test: MTT colorimetric anti-proliferative assay; format: cell-based, human; settings: for GI50: LNCaP, MTT, 7 days; for fold loss/reduction in anti-proliferative activity: relative to lead compound 5 (or parent 32)
# Description: The cells were treated for 7 days with renewal of test compound and media on day 4. On the 7th day, medium was renewed and MTT (3-(4,5-dimethylthiazol-2-yl)-2,5-diphenyl-2H-tetrazolium bromide) (Sigma, St Louis, Mo., USA) solution (0.5 mg MTT per ml of media) was added to the medium such that the ratio of MTT: medium was 1:10. The cells were incubated with MTT for 2 hours. The medium was then aspirated and DMSO was added to solubilize the violet MTT-formazan product.
# AR = biological target: T1, AR (Homo sapiens, UniProt P10275, T878A); test: AR down-regulation, western blot analysis in LNCaP cells; format: cell-based; settings: 24 h, western blot
# T1 construct: host or cells: LNCaP
# T1 sequence (P10275 1-920 T878A): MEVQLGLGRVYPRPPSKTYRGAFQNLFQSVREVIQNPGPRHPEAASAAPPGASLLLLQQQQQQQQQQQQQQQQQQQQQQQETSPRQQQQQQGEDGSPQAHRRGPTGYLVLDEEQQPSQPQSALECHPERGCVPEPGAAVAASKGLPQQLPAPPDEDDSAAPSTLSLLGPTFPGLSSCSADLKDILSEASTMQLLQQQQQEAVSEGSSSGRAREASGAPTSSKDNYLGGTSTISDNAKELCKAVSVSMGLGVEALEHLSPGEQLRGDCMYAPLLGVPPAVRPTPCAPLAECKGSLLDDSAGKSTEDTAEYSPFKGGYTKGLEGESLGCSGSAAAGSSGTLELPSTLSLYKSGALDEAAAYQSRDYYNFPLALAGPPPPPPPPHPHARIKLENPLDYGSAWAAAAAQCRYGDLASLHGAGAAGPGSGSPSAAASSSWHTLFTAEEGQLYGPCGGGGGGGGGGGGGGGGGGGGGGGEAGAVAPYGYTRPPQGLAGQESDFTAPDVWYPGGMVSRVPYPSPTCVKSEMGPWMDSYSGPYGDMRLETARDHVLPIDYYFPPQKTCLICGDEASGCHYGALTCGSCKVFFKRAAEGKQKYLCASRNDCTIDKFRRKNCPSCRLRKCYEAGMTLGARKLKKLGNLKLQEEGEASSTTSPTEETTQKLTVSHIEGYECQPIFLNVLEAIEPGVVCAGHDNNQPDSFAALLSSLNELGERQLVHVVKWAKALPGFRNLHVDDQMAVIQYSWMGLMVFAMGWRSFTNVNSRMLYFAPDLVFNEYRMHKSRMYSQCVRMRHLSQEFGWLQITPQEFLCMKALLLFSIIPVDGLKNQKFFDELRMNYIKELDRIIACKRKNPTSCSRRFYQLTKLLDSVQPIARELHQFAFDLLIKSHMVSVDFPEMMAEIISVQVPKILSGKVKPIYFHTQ
# Description: For the Western blot analyses, LNCaP or CWR22v1 prostate cancer cells were cultured. The cells were then treated with the indicated compounds and whole cell lysates were prepared using RIPA lysis buffer (Sigma Aldrich) and protease and phosphatase inhibitors (Sigma Aldrich). All of the antibodies were ordered from cell signaling technology. Protein content was determined using the Bradford Assay (Bio-Rad, Hercules, Calif., USA). Protein was subjected to SDS-PAGE and transferred onto nitrocellulosemembrane. Membranes were then incubated with secondary antibody (cell signaling technology) at room temperature for 1 hour. Bands were visualized by chemiluminescence (Millipore). Protein expression was normalized to β-actin and densitometry was carried out using Image J or ImageQuant 5.0 (Molecular Dynamics, Sunnyvale, Calif., USA). CWR22Rv1 cells were used for endogenous levels of splice variant AR-3. Protein levels were analyzed with respective antibodies; full length AR and β-actin antibodies were purchased from cell signaling, antibody specific for splice variant AR-3 was obtained from Dr. Yun Qiu, University of Maryland, School of Medicine, Baltimore.
# [1] = Table 4, read-out: GI50 of C-3 modified compounds
# [2] = Homo sapiens, 168 h, Table 2, read-out: GI50 of C-17 modified compounds
# [3] = Table 2, read-out: GI50 of C-17 modified compounds
# [4] = Homo sapiens, 168 h, Table 4, read-out: GI50 of C-3 modified compounds
compound,measurement,setting,value
"3β-(3-(Oxycarbonyl)phenylacetic acid)-17-(1H-benzimidazol-1-yl)-androsta-5,16-diene [Compound 44]",GI50,LNCaP cells; [1],7.78 µM
"CON=C1C=C2CC[C@@H]3[C@H](CC[C@]4(C)C(n5cnc6ccccc65)=CC[C@@H]34)[C@@]2(C)CC1 (mixture of isomers) [Compound 38, 3-((EZ)-O-Methyloxime)-17-(1H-Benzimidazol-1-yl)-androsta-4,16-diene]",GI50,LNCaP cells; [1],3.38 µM
"C[C@]12CCC(=NOCc3ccccc3)C=C1CC[C@@H]1[C@@H]2CC[C@]2(C)C(n3cnc4ccccc43)=CC[C@@H]12 (mixture of isomers) [Compound 39, 3-((EZ)-(O-Phenylmethyl)oxime)-17-(1H-Benzimidazol-1-yl)-androsta-4,16-diene]",GI50,LNCaP cells; [1],5.57 µM
"Cc1cc2ncn(C3=CC[C@H]4[C@@H]5CC=C6C[C@@H](O)CC[C@]6(C)[C@H]5CC[C@]34C)c2cc1C [Compound 17, 3β-Hydroxy-17-(5,6-dimethyl-1H-benzimidazol-1-yl)-androsta-5,16-diene]","AR down-regulation (ARD) activity, in words",AR,substantial loss
same,GI50,LNCaP cells; [2],42.7 µM
same,melting point,,194 to 196 °C
"C[C@]12CC[C@H](O)CC1=CC[C@@H]1[C@@H]2CC[C@]2(C)C(n3cnc4cc(C#N)ccc43)=CC[C@@H]12 [Compound 18, 3β-Hydroxy-17-(5(6)-nitrile-1H-benzimidazol-1-yl)-androsta-5,16-diene]","AR down-regulation (ARD) activity, in words",AR,diminished AR down-regulation (ARD) activity
same,GI50,LNCaP cells; [3],2.81 µM
"COc1ccc2ncn(C3=CC[C@H]4[C@@H]5CC=C6C[C@@H](O)CC[C@]6(C)[C@H]5CC[C@]34C)c2c1 [Compound 19, 3β-Hydroxy-17-(6-methoxy-1H-benzimidazol-1-yl)-androsta-5,16-diene]","AR down-regulation (ARD) activity, in words",AR,no modulation of ARDA
same,GI50,LNCaP cells; [3],4.26 µM
same,melting point,,169 to 179 °C
"C[C@]12CC[C@H](O)CC1=CC[C@@H]1[C@@H]2CC[C@]2(C)C(n3cnc4cc5ccccc5cc43)=CC[C@@H]12 [Compound 20, 3β-Hydroxy-17-(1H-benzo[f]benzimidazol-1-yl)-androsta-5,16-diene]","AR down-regulation (ARD) activity, in words",AR,significant loss of ARDA
same,GI50,LNCaP cells; [2],19.1 µM
same,melting point,,150 to 152 °C
"C[C@]12CC[C@H](O)CC1=CC[C@@H]1[C@@H]2CC[C@]2(C)C(n3cnc4c(Cl)ncnc43)=CC[C@@H]12 [Compound 21, 3β-Hydroxy-17-(6-Chloro-9H-purin-9-yl)-androsta-5,16-diene]",GI50,LNCaP cells; [3],13.5 µM
same,fold loss/reduction in anti-proliferative activity,LNCaP cells,4 fold
same,melting point,,272 to 274 °C
"C[C@]12CC[C@H](O)CC1=CC[C@@H]1[C@@H]2CC[C@]2(C)C(n3c(Cl)nc4ccccc43)=CC[C@@H]12 [Compound 22, 3β-Hydroxy-17-(2-chloro-1H-benzimidazol-1-yl)-androsta-5,16-diene]",GI50,LNCaP cells; [2],10.1 µM
same,fold loss/reduction in anti-proliferative activity,LNCaP cells,3 fold
same,melting point,,83 to 86 °C
"CC(C)CCNCC1=C(n2cnc3ccccc32)[C@@]2(C)CC[C@H]3[C@@H](CC=C4C[C@@H](O)CC[C@@]43C)[C@@H]2C1 [Compound 25, 3β-Hydroxy-17-(1H-benzimidazol-1-yl)-16-((isopentylamino)methyl)-androsta-5,16-diene]","AR down-regulation (ARD) activity, in words",AR,significant loss of ARD
same,melting point,,111 to 113 °C
"C[C@]12CC[C@H](O)CC1=CC[C@@H]1[C@@H]2CC[C@]2(C)C(n3cnc4ccccc43)=C(CNc3ccccc3)C[C@@H]12 [Compound 28, 3β-Hydroxy-17-(1H-benzimidazol-1-yl)-16-((phenylamino)methyl)-androsta-5,16-diene]","AR down-regulation (ARD) activity, in words",AR,significant loss of ARD
same,GI50,"LNCaP cells; Homo sapiens, 168 h, LNCaP cells, Table 3, read-out: GI50 of C-16 modified compounds",22.1 µM
same,melting point,,130 to 132 °C
"C[C@]12CCC(=O)C=C1CC[C@@H]1[C@@H]2CC[C@]2(C)C(n3cnc4ccccc43)=CC[C@@H]12 [Compound 32, 17-(1H-Benzimidazol-1-yl)-androsta-4,16-dien-3-one]",GI50,LNCaP cells; [4],2.64 µM
"C[C@]12CCC(=O)CC1=CC[C@@H]1[C@@H]2CC[C@]2(C)C(n3cnc4ccccc43)=CC[C@@H]12 [Compound 33, 17-(1H-Benzimidazol-1-yl)-androsta-5,16-dien-3-one]",GI50,LNCaP cells; [4],16 µM
same,fold loss/reduction in anti-proliferative activity,LNCaP cells,~5 fold
same,melting point,,170 to 172 °C
"C[C@]12CC[C@H](OS(C)(=O)=O)CC1=CC[C@@H]1[C@@H]2CC[C@]2(C)C(n3cnc4ccccc43)=CC[C@@H]12 [Compound 34, 3β-Mesyloxy-17-(1H-benzimidazol-1-yl)-androsta-5,16-dien]",GI50,LNCaP cells; [4],42.1 µM
"Cc1ccc(S(=O)(=O)O[C@H]2CC[C@@]3(C)C(=CC[C@@H]4[C@@H]3CC[C@]3(C)C(n5cnc6ccccc65)=CC[C@@H]43)C2)cc1 [Compound 35, 3β-Tosyloxy-17-(1H-benzimidazol-1-yl)-androsta-5,16-dien]",GI50,LNCaP cells; [1],47.2 µM
same,melting point,,139 to 141 °C
"CC1(O)C=C2CC[C@@H]3[C@H](CC[C@]4(C)C(n5cnc6ccccc65)=CC[C@@H]34)[C@@]2(C)CC1 (stereo partly drawn) [Compound 40, 3-Methyl-3-hydroxy-17-(1H-benzimidazol-1-yl)-androsta-4,16-diene]",GI50,LNCaP cells; [4],13.3 µM
same,fold loss/reduction in anti-proliferative activity,LNCaP cells,~5 fold
same,melting point,,95 to 97 °C
"C[C@]12CC[C@H](OC(=O)C3CC=CCC3C(=O)O)CC1=CC[C@@H]1[C@@H]2CC[C@]2(C)C(n3cnc4ccccc43)=CC[C@@H]12 (stereo partly drawn) [Compound 45, 3β-(6-(Cyclohex-3-enecaboxylic acid)carboxylate)-17-(1H-benzimidazol-1-yl)-androsta-5,16-diene]",GI50,LNCaP cells; [1],8.22 µM
"C[C@]12CC[C@H](OC(=O)COCC(=O)O)CC1=CC[C@@H]1[C@@H]2CC[C@]2(C)C(n3cnc4ccccc43)=CC[C@@H]12 [Compound 46, 3β-(Oxycarbonyl-(methoxy)acetic acid)-17-(1H-benzimidazol-1-yl)-androsta-5,16-diene]",GI50,LNCaP cells; [1],9.13 µM
"C[C@]12CC[C@H](OC(=O)n3cncn3)CC1=CC[C@@H]1[C@@H]2CC[C@]2(C)C(n3cnc4ccccc43)=CC[C@@H]12 [Compound 49, 3β-(1H-1,2,4-Triazole-1-carboxylate)-17-(1H-benzimidazol-1-yl)-androsta-5,16-diene]",GI50,LNCaP cells; [1],6.67 µM
same,fold decrease in anti-proliferative activity,LNCaP cells; relative to 47,~8 fold
